pKi: −log10 of the molar value.

The target in assay [1] is Prothrombin (Homo sapiens, UniProt P00734). The assay can be described thus: In vitro inhibition of coagulation factor IIa.
The target of assay [2] is Serine protease 1 (Homo sapiens, UniProt P07477). The assay can be described thus: In vitro inhibition of trypsin.
Assay [3] addresses Coagulation factor X (Homo sapiens, UniProt P00742). The assay can be described thus: In vitro inhibition of coagulation factor Xa.
The target in assay [4] is Tissue-type plasminogen activator (Homo sapiens, UniProt P00750). The assay can be described thus: Compound was tested for its inhibitory activity against tissue plasminogen activator.
Assay [5] deals with Vitamin K-dependent protein C (Homo sapiens, UniProt P04070). The assay can be described thus: Compound was evaluated for the inhibitory activity against Activated protein C.
The target of assay [6] is Plasminogen (Homo sapiens, UniProt P00747). The assay can be described thus: Compound was tested for its inhibitory activity against Plasmin.
Assay [7] is filed under the species Rattus norvegicus. The assay can be described thus: Ability to prolong the activated partial thromboplastin time (APTT) in plasma from rat.
The species named for assay [8] is Homo sapiens. The assay can be described thus: Ability to prolong the activated partial thromboplastin time (APTT) in plasma from human. The assay is classed as functional, cell-free.
Assay [9] is filed under the species Oryctolagus cuniculus. The assay can be described thus: Ability to prolong the activated partial thromboplastin time (APTT) in plasma from rabbit.
The species entered for assay [10] is Canis lupus familiaris. The assay can be described thus: Ability to prolong the activated partial thromboplastin time (APTT) in plasma from dog.

Serine protease 1, sequence (P07477 whole entry): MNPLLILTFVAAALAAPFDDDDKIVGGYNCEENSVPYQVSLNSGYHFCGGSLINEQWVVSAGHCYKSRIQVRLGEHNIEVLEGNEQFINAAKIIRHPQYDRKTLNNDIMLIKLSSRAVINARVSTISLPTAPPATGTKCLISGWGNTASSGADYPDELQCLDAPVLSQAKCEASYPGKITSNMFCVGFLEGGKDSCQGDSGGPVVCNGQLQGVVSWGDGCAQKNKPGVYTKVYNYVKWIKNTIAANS
Coagulation factor X, sequence (P00742 41-179 limits assumed): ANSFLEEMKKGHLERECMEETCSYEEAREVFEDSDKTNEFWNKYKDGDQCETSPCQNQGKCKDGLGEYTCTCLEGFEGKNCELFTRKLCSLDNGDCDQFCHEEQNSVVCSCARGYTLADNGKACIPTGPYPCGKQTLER
Coagulation factor X, sequence (P00742 235-488 limits assumed): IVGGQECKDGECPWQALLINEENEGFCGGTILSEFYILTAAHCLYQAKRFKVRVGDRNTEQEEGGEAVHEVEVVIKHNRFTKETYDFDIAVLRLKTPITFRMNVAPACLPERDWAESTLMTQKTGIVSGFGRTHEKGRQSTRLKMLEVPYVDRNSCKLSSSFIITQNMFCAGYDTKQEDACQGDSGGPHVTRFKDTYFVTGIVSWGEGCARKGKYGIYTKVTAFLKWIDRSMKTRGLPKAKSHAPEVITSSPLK
Vitamin K-dependent protein C, sequence (P04070 43-197 limits assumed): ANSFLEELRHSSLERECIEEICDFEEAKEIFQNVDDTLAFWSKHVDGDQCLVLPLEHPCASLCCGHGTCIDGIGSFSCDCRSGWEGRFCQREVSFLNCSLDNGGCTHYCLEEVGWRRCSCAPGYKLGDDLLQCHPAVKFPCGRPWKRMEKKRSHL
Vitamin K-dependent protein C, sequence (P04070 212-461 limits assumed): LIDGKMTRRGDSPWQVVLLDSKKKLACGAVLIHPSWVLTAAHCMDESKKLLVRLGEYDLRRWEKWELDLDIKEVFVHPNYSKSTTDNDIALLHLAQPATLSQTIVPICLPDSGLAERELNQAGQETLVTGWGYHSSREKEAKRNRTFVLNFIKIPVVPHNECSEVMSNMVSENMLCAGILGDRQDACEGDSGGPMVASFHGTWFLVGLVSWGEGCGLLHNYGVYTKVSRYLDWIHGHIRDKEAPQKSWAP
Tissue-type plasminogen activator, sequence (P00750 whole entry): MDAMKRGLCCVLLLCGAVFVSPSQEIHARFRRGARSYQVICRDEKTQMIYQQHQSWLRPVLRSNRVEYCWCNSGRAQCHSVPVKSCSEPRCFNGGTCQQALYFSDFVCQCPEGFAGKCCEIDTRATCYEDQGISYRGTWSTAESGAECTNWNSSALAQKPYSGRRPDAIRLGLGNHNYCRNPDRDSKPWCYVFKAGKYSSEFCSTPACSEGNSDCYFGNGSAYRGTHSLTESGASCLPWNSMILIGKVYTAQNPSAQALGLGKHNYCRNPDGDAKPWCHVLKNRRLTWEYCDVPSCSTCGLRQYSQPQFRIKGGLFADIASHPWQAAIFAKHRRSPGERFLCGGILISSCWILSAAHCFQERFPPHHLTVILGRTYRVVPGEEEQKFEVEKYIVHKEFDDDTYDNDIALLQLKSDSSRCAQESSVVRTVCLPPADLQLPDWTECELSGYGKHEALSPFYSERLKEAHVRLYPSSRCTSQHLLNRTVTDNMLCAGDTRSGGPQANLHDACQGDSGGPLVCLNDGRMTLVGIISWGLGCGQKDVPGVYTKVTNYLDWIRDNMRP
Plasminogen, sequence (P00747 97-580 limits assumed): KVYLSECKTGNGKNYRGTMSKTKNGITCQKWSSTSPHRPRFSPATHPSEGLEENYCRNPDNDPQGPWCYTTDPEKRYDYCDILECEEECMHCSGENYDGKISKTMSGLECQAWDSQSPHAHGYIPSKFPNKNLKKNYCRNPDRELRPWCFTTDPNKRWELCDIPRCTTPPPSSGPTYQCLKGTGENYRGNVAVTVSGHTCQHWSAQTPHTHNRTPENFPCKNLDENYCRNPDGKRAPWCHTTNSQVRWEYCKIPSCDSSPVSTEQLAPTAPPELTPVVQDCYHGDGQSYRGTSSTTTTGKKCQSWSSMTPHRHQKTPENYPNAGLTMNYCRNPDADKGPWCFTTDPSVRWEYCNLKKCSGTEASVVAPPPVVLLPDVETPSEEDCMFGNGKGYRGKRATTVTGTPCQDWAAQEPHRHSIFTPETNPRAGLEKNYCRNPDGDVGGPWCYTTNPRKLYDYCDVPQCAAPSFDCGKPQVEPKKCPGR
Plasminogen, sequence (P00747 581-810 limits assumed): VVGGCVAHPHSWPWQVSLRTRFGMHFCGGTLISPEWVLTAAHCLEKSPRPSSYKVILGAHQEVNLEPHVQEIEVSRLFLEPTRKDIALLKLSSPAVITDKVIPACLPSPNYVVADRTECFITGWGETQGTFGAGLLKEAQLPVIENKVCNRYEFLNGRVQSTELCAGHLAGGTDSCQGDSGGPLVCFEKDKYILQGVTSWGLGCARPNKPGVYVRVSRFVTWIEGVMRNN

A word on the pKi: it is the Ki on a negative log10 scale, so that one unit is a factor of ten. Read a low pKi as a high Ki. Consider `N=C(N)c1ccc(O)c(CCCNC(=O)c2ccc(-c3c[nH]cn3)cc2)c1`, for which the pKi was < 5.40 in assay [1], ~5.54 in [2] and 6.60 in [3].

`N=C(N)c1ccc(O)c(/C=C/CNC(=O)c2ccc(-c3ccccn3)s2)c1`: the pKi in [1] was < 5.40; in assay [2] it was 5.85; in assay [3], 7.43.

On to `CC(C)(C)c1ccc(C(=O)NC/C=C/c2cc(C(=N)N)ccc2O)cc1`, for which the pKi in assay [1] was 5.49; in [2], 5.64; in assay [3], 7.21.

As to `N=C(N)c1ccc(O)c(CCCNC(=O)c2ccc(-c3ccccn3)s2)c1`, the pKi in assay [1] was < 5.40; in assay [2] it was < 5.54; in assay [3], 6.88.

As for `N=C(N)c1ccc(O)c(/C=C/CNC(=O)c2ccc(-c3c[nH]cn3)cc2)c1`, the pKi in assay [1] is < 5.40; in assay [2] it was 5.74; in [3] it was 7.72.

For `COC(=O)[C@H](Cc1cccc(C(=N)N)c1)[C@@H](C)NC(=O)c1ccc(-c2cccc(C(N)=O)c2)cc1`, the pKi in assay [4] was < 5.06; in [5], < 4.73; in assay [6], 6.85; in [3], 9.30.

For `N=C(N)c1ccc(O)c(CCCNC(=O)c2ccc(-c3cccnc3)cc2)c1`, the pKi in assay [1] is < 5.40; in assay [2], 5.72; in assay [3], 7.42.

As to `N=C(N)c1ccc(O)c(CCCNC(=O)c2cc3ccc(Cl)cc3s2)c1`, the pKi in [1] was ~5.40; in assay [2] it was < 5.54; in assay [3] it was 6.74.

For the compound `N=C(N)c1ccc(O)c(/C=C/CNC(=O)c2ccc(-c3ccccc3)cc2)c1`, the pKi in assay [1] was < 5.40; in assay [2], < 5.54; in assay [3], 7.29.

For `N=C(N)c1ccc(O)c(CCCNC(=O)c2ccc(-c3cccc(C(N)=O)c3)cc2)c1`, the pKi in assay [1] was < 5.40; in assay [2] it was < 5.54; in [4], < 5.06; in [5], 4.82; in assay [6], 5.46; in assay [3], 8.15.

Consider `N=C(N)c1ccc(O)c(/C=C/CNC(=O)c2ccc(-c3cccc(C(N)=O)c3)cc2)c1`, for which the pKi in [1] is < 5.40; in assay [2], < 5.54; in assay [3], 8.30.

On to `N=C(N)c1cccc(CCCNC(=O)c2ccc(-c3ccccc3)cc2)c1`, for which the pKi in [3] is 6.00.

For `N=C(N)c1ccc(O)c(CCCNC(=O)c2ccc(-c3ccccc3)cc2)c1`, the pKi in assay [1] was < 5.40; in assay [2], < 5.54; in assay [3], 7.06.

On to `N=C(N)c1ccc(O)c(/C=C/CNC(=O)c2ccc(-c3cccc(S(N)(=O)=O)c3)cc2)c1`, for which the values for the pKi in assay [1], in [2] and in [3] were < 5.40, 6.62 and 8.05, respectively.

Take `N=C(N)c1ccc(O)c(/C=C/CNC(=O)c2ccc(-c3ccccc3S(N)(=O)=O)cc2)c1`: the pKi in assay [1] was < 5.40; in assay [2] it was 5.82; in assay [3], 8.70.

With `N=C(N)c1ccc(O)c(/C=C/CNC(=O)c2ccc(-c3ccc(S(N)(=O)=O)cc3)cc2)c1`, the pKi in [1] is < 5.40; in [2] it was 5.80; in assay [3], 7.92.

As for `N=C(N)c1ccc(O)c(/C=C/CNC(=O)c2ccc(-c3ccc(C(N)=O)cc3)cc2)c1`, the pKi was 5.54 in assay [1], 5.85 in assay [2] and 7.70 in assay [3].

On to `N=C(N)c1ccc(O)c(/C=C/CNC(=O)c2cc3nnc(O)cc3s2)c1`, for which the pKi is < 5.40 in assay [1], 5.85 in assay [2] and 6.74 in assay [3].

On to `N=C(N)c1ccc(O)c(/C=C/CNC(=O)c2ccc(-c3ncc[nH]3)cc2)c1`, for which the pKi was < 5.40 in assay [1], 5.85 in assay [2] and 6.89 in [3].

`N=C(N)c1ccc(O)c(/C=C/CNC(=O)c2ccc(-c3ccnc(C(N)=O)c3)cc2)c1`: the pKi is < 5.40 in assay [1]; 5.66 in [2]; 5.11 in assay [4]; ~4.73 in [5]; < 5.14 in assay [6]; 9.12 in assay [3]. Besides, the Concentration in assay [7] is 1.7 µM; in [8], 0.87 µM; in [9], 0.51 µM; in assay [10], 0.99 µM.

Turning to `CC(C)(C)c1ccc(C(=O)NCCCc2cc(C(=N)N)ccc2O)cc1`, the pKi in [1] is < 5.40; in [2], 5.66; in assay [3] it was 7.23.

For `N=C(N)c1ccc(O)c(CCCNC(=O)c2ccc(-c3ncc[nH]3)cc2)c1`, the pKi in [1] is < 5.40; in assay [2], ~5.54; in assay [3], 7.24.

Turning to `COC(=O)[C@H](Cc1cccc(C(=N)N)c1)[C@@H](C)NC(=O)c1ccc(-c2ccccc2)cc1`, the negative logarithm of the Ki (pKi) in assay [3] was 8.30.

(Values after ChEMBL document CHEMBL1133371, “Amido-(propyl and allyl)-hydroxybenzamidines: development of achiral inhibitors of factor Xa” (Bioorg Med Chem Lett, 2000).)
